US5858968A, “Method of treating or preventing type 1 diabetes by oral administration of insulin” (AutoImmune Inc., priority 1995, dated 1999)
Where “and” joins values, the source holds several entries; their conditions need not be identical. Identical values can stand only once. Entries after “also recorded” stand apart in the source; their conditions may differ.

B1: myelin basic protein: myelin basic protein (obtained from Pel Freez, Rogers, Ariz.) fed as a control protein (protein, UniProt P02686 1-304, looked up)
Myelin basic protein: MGNHAGKRELNAEKASTNSETNRGESEKKRNLGELSRTTSEDNEVFGEADANQNNGTSSQDTAVTDSKRTADPKNAWQDAHPADPGSRPHLIRLFSRDAPGREDNTFKDRPSESDELQTIQEDSAATSESLDVMASQKRPSQRHGSKYLATASTMDHARHGFLPRHRDTGILDSIGRFFGGDRGAPKRGSGKDSHHPARTAHYGSLPQKSHGRTQDENPVVHFFKNIVTPRTPPPSQGKGRGLSLSRFSWGAEGQRPGFGYGGRASDYKSAHKGFKGVDAQGTLSKIFKLGGRDSRSGSPMARR

What was measured:
Type in all cases: in vivo
NOD mice [1] = assay: Effect of feeding porcine insulin on spontaneous diabetes in NOD mice
Text: NOD (non-obese diabetic mice) were obtained from Taconic Laboratories (Germantown, Mass.) at 4 weeks of age. There were a total of 30 animals in each of the groups mentioned below at the beginning of the experiment. At 4 1/2 weeks of age, animals were orally administered Porcine insulin (Novo Laboratories, Danbury, Conn.). Each animal received two treatments orally twice a week until 9 weeks of age. The mice were fed either saline (control) or 10 micrograms, 100 micrograms, or 1 milligram of Porcine insulin. The animals were fed (gavaged) with an 18 gauge ball-point needle (Popper and Sons, Inc., New Hyde Park, N.Y.). Beginning at 10 weeks the animals were then fed once a week for a total of 33 weeks. Beginning at 12 weeks the urine was tested weekly for the presence of glucose using Glucosuria test tape (Eli Lilly, Indianapolis, Ind.). If an animal tested 3+or higher on the glucose urine test, a serum sample was taken and blood glucose measured using a glucose analyzer (Beckman). If the blood glucose was 220 or higher, the animals were classified as diabetic and then sacrificed.

NOD mice [2] = assay: Glucose post oral insulin in fasting 7 week NOD mice; conditions: fasting 7 week old NOD mice
Protocol: In order to determine whether any endocrinologic (i.e. direct lowering of blood sugar) effects occurred following the feeding of insulin, 7 week old NOD mice (5 mice per group) were fed 1 mg of porcine insulin or 1 mg of myelin basic protein (obtained from Pel Freez, Rogers, Ariz.) as a control protein. Blood glucose was then measured over the next 24 hour period. As a positive control, a separate group of animals were injected subcutaneously with 20 micrograms of Porcine insulin. All animals were kept in the fasting state.

NOD mice [3] = assay: Insulitis in NOD mice fed insulin (preliminary experiments); conditions: NOD mice fed 1 mg, vs PBS-fed NOD mice; data not shown
Text: Therefore, oral administration of insulin to NOD mice appeared to be affecting the infiltration of immune system cells into the pancreas and thus halting disease progression by preserving beta cell function.

NOD mice [4] = assay: Treatment of initial stages of diabetes in NOD mice; conditions: oral and aerosol administration, 0 to 1 mg, hyperglycemic NOD mice
Protocol: Insulin (0 to 1 mg as in Examples 1 and 2) will be administered to NOD mice which are suffering from hyperglycemia in an oral and aerosol form. The treatments will begin by weeks 12-20 of age, by which the serum glucose levels are at hyperglycemic concentrations in a certain percentage of animals prior to onset of diabetes.

[5] = subcutaneous injection of 20 micrograms

| Molecule | development of diabetes (NOD mice [1]; NOD mice fed 1 mg insulin orally (gavage), vs saline control, diabetic = blood glucose 220 or higher) | development of diabetes (NOD mice [1]; NOD mice fed 10 micrograms insulin orally, dose response fashion) | blood sugar in individual animals which developed diabetes (NOD mice [1]; NOD mice fed 10 micrograms of insulin) | development of diabetes (NOD mice [1]; NOD mice fed 100 micrograms insulin orally, dose response fashion) | blood sugar in individual animals that became diabetic (NOD mice [1]; NOD mice fed 100 micrograms of insulin) | incidence of diabetes (NOD mice [1]; NOD mice, all doses of orally administered insulin, dose-dependent) | treated animals that failed to develop diabetes (NOD mice [1]; NOD mice, highest dose of oral insulin (1 mg)) [%] | blood glucose after feeding (NOD mice [2]; 1 mg oral) | blood glucose over the next 24 hours (NOD mice [2]; 1 mg oral) | endocrinologic (metabolic) effects (NOD mice [2]; 1 mg oral) | decrease in glucose level (NOD mice [2]; [5]) | period over which the glucose decrease persisted (NOD mice [2]; [5]) [h] | inflammatory immune system cells surrounding the pancreas (insulitis) (NOD mice [3]) | beta cell function (NOD mice [4]) | serum glucose concentrations (NOD mice [4]) |
| --- | --- | --- | --- | --- | --- | --- | --- | --- | --- | --- | --- | --- | --- | --- | --- |
| insulin: Porcine insulin (Novo Laboratories, Danbury, Conn.), given orally by gavage, subcutaneously as positive control, or planned as aerosol | none of the mice went on to develop diabetes; also recorded: no diabetes developed; also recorded: None of the animals developed diabetes | diabetes developed | 330 mg/dL and 420 mg/dL and 315 mg/dL and 459 mg/dL and 520 mg/dL and 487 mg/dL | diabetes developed | 500 mg/dL and 290 mg/dL and 600 mg/dL and 450 mg/dL | lower incidence of diabetes; also recorded: reduced the numbers of these mice which subsequently went on to develop diabetes | 100 | no drop in the blood glucose | gradual decrease in blood glucose | no endocrinologic (metabolic) effects | approximately 80 mg % | 4 | fewer inflammatory immune system cells surrounding the pancreas | preservation of beta cell function | reduction in serum glucose concentrations to near normal levels |
| B1 | – | – | – | – | – | – | – | no drop in the blood glucose | gradual decrease in blood glucose | – | – | – | – | – | – |
